Results taken from patent EP2042492A1, “Novel Iminooxazole and Iminothiazole Compounds” (Bayer CropScience AG, priority 2007, dated 2009).

How the values were obtained:
Myzus persicae = Myzus persicae - test (MYZUPE spray application); assay type: in vivo; settings: application rate of 500g/ha, spray on Chinese cabbage leaf-disks infected with all instars of green peach aphid, 100% = all aphids killed
Method: Myzus persicae - test; (MYZUPE spray application)
Chinese cabbage (Brassica pekinesis) leaf-disks infected with all instars of the green peach aphid (Myzus persicae), are sprayed with a preparation of the active ingredient at the desired concentration.
After the specified period of time, mortality in % is determined. 100% means that all aphids have been killed; 0% means that none of the aphids have been killed.

[1] = LogP via HPLC according to EEC directive 79/831 Annex V.A8 (gradient method, acetonitrile / 0,1 % aqueous formic acid); assay type: physicochemical; settings: read-out: lgP (HCOOH)
Method: Step 2: A stirred mixture of 58 mg (0,24 mmol) of 1-[(1S)-1-(4-fluorophenyl)ethyl]-3-(2-hydroxyethyl)thiourea (preparation step 1) and 27 mg (0,29 mmol) of 1-chloro-propan-2-one in ethanol was refluxed for 18 hours. The solvent was evaporated under reduced pressure and the residue was heated to 70 °C with 25 % aqueous NH4OH solution. This aqueous solution was cooled to ambient temperature and extracted twice with dichloromethane. The organic layer was separated, dried with sodium sulfate and filtered off. The solvent was evaporated under reduced pressure. The residue was purified by chromatography (silica gel; cyclohexane/ethyl acetate = vol. 2:1) to afford 42 mg of 2-[(2E)-2-{[(1S)-1-(4-fluorophenyl)ethyl]imino}-4-methyl-1,3-thiazol-3(2H)-yl]ethanol. Yield: 42 mg (62,3 % of theory). logP (HCOOH) = 0,89 LogP values according EEC directive 79/831 Annex V.A8 via HPLC (gradient method, acetonitrile / 0,1 % aqueous formic acid).

Phaedon cochleariae = Phaedon cochleariae - test (PHAECO spray application); assay type: in vivo; settings: application rate of 500g/ha, sprayed Chinese cabbage leaf-disks infested with mustard beetle larvae, 100 % = all beetle larvae killed
Method: Phaedon cochleariae - test; (PHAECO spray application)
(§1) To produce a suitable preparation of active compound, 1 part by weight of active compound is mixed with the stated amount of solvent and emulsifier, and the concentrate is diluted with emulsifier-containing water to the desired concentration.
Chinese cabbage (Brassica pekinesis) leaf-disks are sprayed with a preparation of the active ingredient of the desired concentration. Once dry, the leaf disks are infested with mustard beetle larvae (Phaedon cochleariae).
After the specified period of time, mortality in % is determined. 100 % means that all beetle larvae have been killed and 0 % means that none of the beetle larvae have been killed.

Tetranychus urticae = Tetranychus urticae - test; OP-resistant (TETRUR spray application); assay type: in vivo; settings: application rate of 500g/ha, spray on French beans infested with all stages of two spotted spidermite, 100% = all spider mites killed
Method: Tetranychus urticae - test; OP-resistant (TETRUR spray application)
as §1
French beans (Phaseolus vulgaris) which are heavily infested with all stages of the two spotted spidermite (Tetranychus urticae), are sprayed with a preparation of the active ingredient at the desired concentration.
After the specified period of time, mortality in % is determined. 100% means that all spider mites have been killed and 0% means that none of the spider mites have been killed.

SMILES	chromatographic logP [1]	mortality at 500 g/ha (Myzus persicae) [%]	mortality at 500 g/ha (Phaedon cochleariae) [%]	mortality at 500 g/ha (Tetranychus urticae) [%]
Cc1cs/c(=N/[C@@H](C)c2ccc(F)cc2)n1CCO [Example 2-152, 2-[(2E)-2-{[(1S)-1-(4-fluorophenyl)ethyl]imino}-4-methyl-1,3-thiazol-3(2H)-yl]ethanol]	0.89	≥ 80		
CCc1csc(=N[C@@H](C)c2ccc(F)cc2)n1CCO [Example 2-153]	1	≥ 80	≥ 80	
CC(C)c1csc(=N[C@@H](C)c2ccc(F)cc2)n1CCO [Example 2-154]	1.12	≥ 80		
C[C@H](N=c1scc(C2CC2)n1CCO)c1ccc(F)cc1 [Example 2-157]	1.03	≥ 80		
C[C@H](N=c1scc(C2CCCC2)n1CCO)c1ccc(F)cc1 [Example 2-158]	1.31	≥ 80		
C[C@H](N=c1scc(C2(Cl)CC2)n1CCO)c1ccc(F)cc1 [Example 2-164]	1.14	≥ 80		
COc1ccc([C@H](C)N=c2scc(C)n2CCO)cc1 [Example 2-272]	0.89			
CCc1csc(=N[C@@H](C)c2ccc(OC)cc2)n1CCO [Example 2-273]	1			
COc1ccc([C@H](C)N=c2scc(C(C)C)n2CCO)cc1 [Example 2-274]	1.09			
COc1ccc([C@H](C)N=c2scc(C3CC3)n2CCO)cc1 [Example 2-277]	1.05			
COc1ccc([C@H](C)N=c2scc(C3CCCC3)n2CCO)cc1 [Example 2-278]	1.33			
COc1ccc([C@H](C)N=c2scc(C3(Cl)CC3)n2CCO)cc1 [Example 2-284]	1.14			
Cc1csc(=N[C@@H](C)c2ccc(Cl)cc2)n1CCO [Example 2-287]	1.03	≥ 80		≥ 80
CCc1csc(=N[C@@H](C)c2ccc(Cl)cc2)n1CCO [Example 2-288]	1.14	≥ 80		≥ 80
CC(C)c1csc(=N[C@@H](C)c2ccc(Cl)cc2)n1CCO [Example 2-289]	1.28	≥ 80		
C[C@H](N=c1scc(C2CCCC2)n1CCO)c1ccc(Cl)cc1 [Example 2-293]	1.42	≥ 80		
C[C@H](N=c1scc(C2(Cl)CC2)n1CCO)c1ccc(Cl)cc1 [Example 2-299]	1.33	≥ 80		
CCc1csc(=N[C@@H](CC)c2ccccc2)n1CCO [Example 2-363]	1.09	≥ 80		
CC[C@H](N=c1scc(C(C)C)n1CCO)c1ccccc1 [Example 2-364]	1.19	≥ 80		
CC[C@H](N=c1scc(C2CC2)n1CCO)c1ccccc1 [Example 2-367]	1.14	≥ 80		
CC[C@H](N=c1scc(C2CCCC2)n1CCO)c1ccccc1 [Example 2-368]	1.4	≥ 80		
CC[C@H](N=c1scc(C2(Cl)CC2)n1CCO)c1ccccc1 [Example 2-374]	1.19	≥ 80		

Further lines, with some results ahead:

chromatographic logP [1]	SMILES	mortality at 500 g/ha (Myzus persicae) [%]	mortality at 500 g/ha (Phaedon cochleariae) [%]	mortality at 500 g/ha (Tetranychus urticae) [%]
0.85	Cc1csc(=N[C@@H](C)c2ccccc2)n1CCO [Example 2-17]	≥ 80		
0.96	CCc1csc(=N[C@@H](C)c2ccccc2)n1CCO [Example 2-18]	≥ 80		
1.07	CC(C)c1csc(=N[C@@H](C)c2ccccc2)n1CCO [Example 2-19]	≥ 80		
1.13	Cc1sc(=N[C@@H](C)c2ccccc2)n(CCO)c1C [Example 2-21]	≥ 80		
1.01	C[C@H](N=c1scc(C2CC2)n1CCO)c1ccccc1 [Example 2-22]	≥ 80		
1.26	C[C@H](N=c1scc(C2CCCC2)n1CCO)c1ccccc1 [Example 2-23]	≥ 80		
1.19	C[C@H](N=c1scc(-c2ccccc2)n1CCO)c1ccccc1 [Example 2-25]	≥ 80		
0.85	C[C@H](N=c1scc(-c2cccnc2)n1CCO)c1ccccc1 [Example 2-27]	≥ 80		
1.12	C[C@H](N=c1scc(C2(Cl)CC2)n1CCO)c1ccccc1 [Example 2-29]	≥ 80		
1.26	C[C@H](N=c1scc(-c2ccccc2)n1CCO)c1ccc(F)cc1 [Example 2-160]	≥ 80		
0.9	C[C@H](N=c1scc(-c2cccnc2)n1CCO)c1ccc(F)cc1 [Example 2-162]	≥ 80		
1.26	COc1ccc([C@H](C)N=c2scc(-c3ccccc3)n2CCO)cc1 [Example 2-280]			
0.9	COc1ccc([C@H](C)N=c2scc(-c3cccnc3)n2CCO)cc1 [Example 2-282]			
1.38	C[C@H](N=c1scc(-c2ccccc2)n1CCO)c1ccc(Cl)cc1 [Example 2-295]	≥ 80		
1.03	C[C@H](N=c1scc(-c2cccnc2)n1CCO)c1ccc(Cl)cc1 [Example 2-297]	≥ 80		
0.98	CC[C@H](N=c1scc(C)n1CCO)c1ccccc1 [Example 2-362]	≥ 80		
1.33	CC[C@H](N=c1scc(-c2ccccc2)n1CCO)c1ccccc1 [Example 2-370]	≥ 80		
1	CC[C@H](N=c1scc(-c2cccnc2)n1CCO)c1ccccc1 [Example 2-372]	≥ 80		
